Data reported in ChEMBL document CHEMBL4138253, “Synthesis and Biological Evaluation of a Series of Bile Acid Derivatives as FXR Agonists for Treatment of NASH” (ACS Med Chem Lett, 2017).

How the values were obtained:
Bile acid receptor [1] = target: T1, Bile acid receptor (Homo sapiens, UniProt Q96RI1); assay: Agonist activity at recombinant human GST-tagged FXR LBD (193 to 472 residues) expressed in baculovirus-infected insect cells assessed as recruitment of biotinylated SRC1 peptide measured after 1 hr by Alphascreen assay
T1 sequence (Q96RI1 whole entry): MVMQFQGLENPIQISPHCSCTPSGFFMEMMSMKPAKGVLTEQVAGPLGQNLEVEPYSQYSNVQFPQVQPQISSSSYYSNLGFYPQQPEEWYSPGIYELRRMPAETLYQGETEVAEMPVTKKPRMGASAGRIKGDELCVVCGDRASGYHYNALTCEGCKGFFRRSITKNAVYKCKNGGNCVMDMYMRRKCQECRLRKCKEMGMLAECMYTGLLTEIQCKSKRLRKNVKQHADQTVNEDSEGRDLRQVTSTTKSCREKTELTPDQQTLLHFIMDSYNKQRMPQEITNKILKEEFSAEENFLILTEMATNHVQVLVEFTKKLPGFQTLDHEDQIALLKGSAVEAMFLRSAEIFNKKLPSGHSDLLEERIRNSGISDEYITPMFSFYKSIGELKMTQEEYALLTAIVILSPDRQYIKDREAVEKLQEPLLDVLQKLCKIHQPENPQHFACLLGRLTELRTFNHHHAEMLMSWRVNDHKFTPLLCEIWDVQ

[2] = target: T2, Bile acid receptor (Homo sapiens) (UniProt Q96RI1); assay: Agonist activity at recombinant human GST-tagged FXR LBD (193 to 472 residues) expressed in baculovirus-infected insect cells assessed as recruitment of biotinylated SRC1 peptide measured after 1 hr by Alphascreen assay relative to CDCA
T2 sequence (whole entry): T1 sequence (Q96RI1 whole entry)

[3] = target: T3, G-protein coupled bile acid receptor 1 (Homo sapiens, UniProt Q8TDU6); assay: Agonist activity at human TGR5 expressed in HEK293 cells assessed as increase in intracellular cAMP level after 1 hr by TR-FRET assay; assay type: functional, cell-based
T3 sequence (Q8TDU6 whole entry): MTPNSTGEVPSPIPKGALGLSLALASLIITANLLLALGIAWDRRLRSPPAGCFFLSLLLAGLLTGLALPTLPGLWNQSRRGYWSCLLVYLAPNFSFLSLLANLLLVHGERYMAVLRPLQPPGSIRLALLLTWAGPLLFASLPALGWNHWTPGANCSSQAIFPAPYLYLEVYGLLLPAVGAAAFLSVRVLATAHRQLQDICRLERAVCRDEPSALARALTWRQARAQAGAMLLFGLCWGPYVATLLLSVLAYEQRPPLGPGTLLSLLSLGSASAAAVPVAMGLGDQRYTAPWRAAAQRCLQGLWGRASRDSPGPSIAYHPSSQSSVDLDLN

Homo sapiens = species on record: Homo sapiens; assay: Selectivity ratio of EC50 for recombinant human GST-tagged FXR LBD (193 to 472 residues) expressed in baculovirus-infected insect cells to EC50 for human TGR5 expressed in HEK293 cells
[4] = Drug level in C57BL/6 mouse liver at 2 mg/kg, po administered as single cassette dose via gavage measured at 0.5 hrs post dose by LC-MS/MS analysis; assay type: ADME, organism-based; conditions: in vivo
[5] = Drug level in C57BL/6 mouse liver at 2 mg/kg, po administered as single cassette dose via gavage measured at 3 hrs post dose by LC-MS/MS analysis; assay type: ADME, organism-based; conditions: in vivo
[6] = Drug level in C57BL/6 mouse plasma at 2 mg/kg, po administered as single dose via gavage measured at 0.5 hrs post dose by LC-MS/MS analysis; assay type: ADME, organism-based
[7] = Drug level in C57BL/6 mouse plasma at 2 mg/kg, po administered as single cassette dose via gavage measured at 3 hrs post dose by LC-MS/MS analysis; assay type: ADME, organism-based
[8] = Ratio of drug level in liver to plasma in C57BL/6 mouse at 2 mg/kg, po administered as single cassette dose via gavage measured at 0.5 hrs post dose; assay type: ADME, organism-based
[9] = Ratio of drug level in liver to plasma in C57BL/6 mouse at 2 mg/kg, po administered as single cassette dose via gavage measured at 3 hrs post dose; assay type: ADME, organism-based
[10] = target: T2, Bile acid receptor (Homo sapiens); assay: (§1) Agonist activity at human FXR assessed as recruitment of SRC1 peptide by TR-FRET assay
Bile acid receptor [11] = target: T1, Bile acid receptor; assay: as §1

| EC50 (Bile acid receptor [1]) [nM] | Efficacy [2] [%] | EC50 [3] [nM] | Drug uptake [4] [nmol/kg] | Drug uptake [5] [nmol/kg] | concentration at 0.5 h [6] [nM] | concentration at 3 h [7] [nM] | Kp at 0.5 h [8] | Kp at 3 h [9] | Efficacy [10] [%] | EC50 (Bile acid receptor [11]) [nM] | Structure (SMILES) | Ratio EC50 (Homo sapiens) |
| --- | --- | --- | --- | --- | --- | --- | --- | --- | --- | --- | --- | --- |
| 20 | 109 | 240 | 277 | 1363 | 21 | 38 | 13 | 36 | – | – | CC[C@H]1[C@@H](O)[C@@H]2[C@H](CC[C@]3(C)[C@@H]([C@H](C)CCNC(=O)C(=O)O)CC[C@@H]23)[C@@]2(C)CC[C@@H](O)C[C@@H]12 | 12 |
| 30 | 121 | 520 | 1896 | 257 | 43 | 6 | 44 | 43 | – | – | CC[C@H]1[C@@H](O)[C@@H]2[C@H](CC[C@]3(C)[C@@H]([C@H](C)CCc4cc(O)no4)CC[C@@H]23)[C@@]2(C)CC[C@@H](O)C[C@@H]12 | 17 |
| – | – | – | – | – | – | – | – | – | 111 | 1220 | C[C@H](CCn1oc(=O)[nH]c1=O)[C@H]1CC[C@H]2[C@@H]3[C@H](O)C[C@@H]4C[C@H](O)CC[C@]4(C)[C@H]3CC[C@]12C | – |
